Target: T1, LacZ (Escherichia coli, UniProt P00722)
T1 construct: lacZ reporter of plasmid pDG268 (PganS-lacZ at amyE) expressed in B. subtilis YC1074 (ganR R20H, ganA deleted); cleared sonicated lysate
Type: biochemical
Conditions: 2.5 mM ONPG; Z buffer; qualitative

T1 sequence (P00722 2-1024): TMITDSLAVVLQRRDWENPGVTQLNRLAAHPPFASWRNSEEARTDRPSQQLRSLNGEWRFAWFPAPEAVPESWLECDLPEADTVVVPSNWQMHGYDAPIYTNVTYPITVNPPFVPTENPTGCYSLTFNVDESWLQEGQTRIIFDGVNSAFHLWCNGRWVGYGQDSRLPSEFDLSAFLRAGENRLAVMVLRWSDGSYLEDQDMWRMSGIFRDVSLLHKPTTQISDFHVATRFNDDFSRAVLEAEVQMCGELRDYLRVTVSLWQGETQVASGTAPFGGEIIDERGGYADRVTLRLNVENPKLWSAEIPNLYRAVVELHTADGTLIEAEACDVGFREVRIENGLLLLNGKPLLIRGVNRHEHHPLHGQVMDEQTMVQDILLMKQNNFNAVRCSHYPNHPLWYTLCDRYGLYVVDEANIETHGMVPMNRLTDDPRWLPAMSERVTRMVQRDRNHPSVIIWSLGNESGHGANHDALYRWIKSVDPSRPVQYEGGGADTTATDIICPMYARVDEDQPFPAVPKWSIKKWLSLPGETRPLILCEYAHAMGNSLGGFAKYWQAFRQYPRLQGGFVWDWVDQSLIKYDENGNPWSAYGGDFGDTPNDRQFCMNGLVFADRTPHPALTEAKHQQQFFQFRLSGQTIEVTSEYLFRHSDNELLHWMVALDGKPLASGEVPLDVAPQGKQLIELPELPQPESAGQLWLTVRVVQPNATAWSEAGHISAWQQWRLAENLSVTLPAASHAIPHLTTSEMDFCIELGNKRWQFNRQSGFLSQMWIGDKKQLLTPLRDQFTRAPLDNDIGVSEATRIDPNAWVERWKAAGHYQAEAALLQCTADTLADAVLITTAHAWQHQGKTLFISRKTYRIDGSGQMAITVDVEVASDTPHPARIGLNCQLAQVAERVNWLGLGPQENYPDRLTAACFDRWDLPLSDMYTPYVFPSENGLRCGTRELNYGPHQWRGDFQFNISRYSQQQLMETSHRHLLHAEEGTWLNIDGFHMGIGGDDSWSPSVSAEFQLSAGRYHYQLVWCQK

With `OC[C@H]1OC(O)[C@H](O)[C@@H](O)[C@H]1O` (stereo partly shown) [galactose] the “% activity with 2.5-20 mM galactose” value was “we only observed very weak inhibition of catalytic activities of LacZ”.

— publication PMC5472308, “Characterization of the regulation of a plant polysaccharide utilization operon and its role in biofilm formation in Bacillus subtilis” (PLoS ONE, 2017)
